Source: patent publication US7642269B2, “Pyrrolo[3,2-B]pyridine derivatives and processes for the preparation thereof” (Yuhan Corporation, priority 2005, dated 2010)
Counter-ions that a name gives are not always drawn.

target: T1, H^+/K^+-ATPase (Sus scrofa, UniProt P19156); experiment: Inhibitory effects on proton pump (H^+/K^+-ATPase) activity, hog gastric vesicles; format: biochemical; conditions: K^+ stimulated H^+/K^+-ATPase activity, hog gastric vesicle, Pi measured at 620 nm
T1 construct: used as an enzyme source of the in vitro enzyme reaction assay of proton pump; from tissue; host or cells: hog gastric fundic mucosa (membrane vesicles, lyophilized)
Description: Preparation of Gastric Proton Pump Vesicles
The hog fundic regions containing parietal and peptic cells were scraped with slide-glass. The collected cells were suspended in 10 ml of 0.25M sucrose buffer and homogenized using a tight-fitting Teflon-glass homogenizer. The homogenate was centrifuged for 35 min at 8,000 rpm and the pellet was discarded. The supernatant was further centrifuged for 75 min at 25,000 rpm. The resulting pellets were re-suspended in the sucrose buffer (10 ml), and then the suspension was laid onto discontinuous density gradients consisting of 0.25M sucrose buffer and isolation medium containing 9% Ficoll (w/w). After being centrifuged for 3 hours and 15 minutes at 100,000×g, the material at the interface of sucrose buffer and Ficoll solution was collected and then centrifuged for 40 minutes at 100,000×g. The resulting pellets were re-suspended in 1 ml of 5 mM Hepes/Tris buffer (pH 6.1). This material was lyophilized and stored at −70° C. and used as an enzyme source of the in vitro enzyme reaction assay of proton pump.
1-2. Measurement of Inhibitory Effects on Proton Pump (H+/K+-ATPase) activity
The inhibitory effects of the compounds of the present invention against proton pump activity were evaluated in 96-well plate. In this assay, the K^+ specific H^+/K^+-ATPase activity was calculated based on the difference between the activity of H^+/K^+-ATPase activity with K^+ and without K^+ ion. In 96-well plate, 1% dimethylsulfoxide (DMSO) in buffer was added to negative and positive control groups and the diluted compounds of the present invention in buffer were added to test group. All assays were performed in 100 μl reaction volume at room temperature, and the hog gastric vesicle was kept in ice before use. At the beginning of the reaction, 10 μl of reaction buffer containing 1% DMSO was added to the negative and positive control groups and to each concentration of compounds in the test group. Then lyophilized vesicle in 5 mM Pipes/Tris buffer (pH 6.1) was pre-incubated in the presence of various concentrations of test compounds. After a 5 minute incubation, negative and positive buffers were respectively added to the previous reaction mixture. As the substrate, ATP was added to the reaction buffer, and incubated for 30 minutes at 37° C. Enzymatic activity was stopped by the addition of colorimetric reagent (2× malachite green, 1× ammonium molybdate, 1× polyvinyl alcohol, 2× H2O) and the amount of mono phosphate (Pi) in the reaction was measured at 620 nm using the micro plate reader (Genios Pro, TECAN). The difference between the Pi production with K^+ and without K^+ is taken as K^+ stimulated H^+/K^+-ATPase activity.

T1 sequence (P19156 2-1034 limits assumed): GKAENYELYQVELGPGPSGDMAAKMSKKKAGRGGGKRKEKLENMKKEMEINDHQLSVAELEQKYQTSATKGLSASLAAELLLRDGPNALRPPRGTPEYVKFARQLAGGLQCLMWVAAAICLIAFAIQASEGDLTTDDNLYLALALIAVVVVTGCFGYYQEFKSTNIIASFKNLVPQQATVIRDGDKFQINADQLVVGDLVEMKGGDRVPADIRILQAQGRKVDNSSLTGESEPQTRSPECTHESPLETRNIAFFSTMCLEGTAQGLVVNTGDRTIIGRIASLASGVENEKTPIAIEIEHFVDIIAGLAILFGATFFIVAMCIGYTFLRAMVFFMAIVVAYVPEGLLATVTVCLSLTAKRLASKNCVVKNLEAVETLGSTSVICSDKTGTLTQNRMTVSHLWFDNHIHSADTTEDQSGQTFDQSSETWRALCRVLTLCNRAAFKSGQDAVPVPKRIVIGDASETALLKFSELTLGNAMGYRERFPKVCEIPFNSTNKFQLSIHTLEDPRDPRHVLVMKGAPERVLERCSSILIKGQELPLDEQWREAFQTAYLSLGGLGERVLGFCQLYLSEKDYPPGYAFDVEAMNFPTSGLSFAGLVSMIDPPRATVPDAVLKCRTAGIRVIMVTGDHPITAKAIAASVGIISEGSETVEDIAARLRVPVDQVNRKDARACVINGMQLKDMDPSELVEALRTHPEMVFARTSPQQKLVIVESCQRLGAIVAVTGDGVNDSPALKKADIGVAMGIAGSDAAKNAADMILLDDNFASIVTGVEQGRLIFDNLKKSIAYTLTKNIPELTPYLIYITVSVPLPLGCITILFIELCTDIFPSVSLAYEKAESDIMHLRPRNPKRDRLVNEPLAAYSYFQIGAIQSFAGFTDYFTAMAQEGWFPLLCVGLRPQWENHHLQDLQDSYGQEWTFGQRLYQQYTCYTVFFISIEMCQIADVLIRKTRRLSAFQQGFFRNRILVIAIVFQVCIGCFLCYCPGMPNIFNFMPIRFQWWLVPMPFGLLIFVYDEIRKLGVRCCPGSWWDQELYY
T1 sequence (P18434 whole entry partner): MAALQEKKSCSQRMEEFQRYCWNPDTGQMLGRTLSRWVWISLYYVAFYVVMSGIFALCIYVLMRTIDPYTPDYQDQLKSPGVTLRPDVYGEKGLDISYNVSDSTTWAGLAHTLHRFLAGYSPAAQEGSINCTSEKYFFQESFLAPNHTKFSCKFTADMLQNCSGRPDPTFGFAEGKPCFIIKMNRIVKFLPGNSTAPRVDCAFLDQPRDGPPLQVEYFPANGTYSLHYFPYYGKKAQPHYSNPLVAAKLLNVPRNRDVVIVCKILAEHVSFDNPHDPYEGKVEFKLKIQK

Row | Compound | IC50
1 | 1-(3-methylbuten-2-yl)-7-(1,2,3,4-tetrahydroisoquinolin-2-yl)-2,3-dimethyl-1H-pyrrolo[3,2-b]pyridine hydrochloride [Example 16] | 190 nM
2 | Cc1c(C)n(Cc2ccc(Cl)cc2)c2c(N3CCc4ccccc4C3)ccnc12 [Example 1, 1-(4-chlorobenzyl)-7-(1,2,3,4-tetrahydroisoquinolin-2-yl)-2,3-dimethyl-1H-pyrrolo[3,2-b]pyridine hydrochloride] | 650 nM
3 | Cc1c(C)n(Cc2ccc3ccccc3c2)c2c(N3CCc4ccccc4C3)ccnc12 [Example 2, 1-(2-naphthylmethyl)-7-(1,2,3,4-tetrahydroisoquinolin-2-yl)-2,3-dimethyl-1H-pyrrolo[3,2-b]pyridine hydrochloride] | 1060 nM
4 | Cc1c(C)n(CC2OCCO2)c2c(N3CCc4ccccc4C3)ccnc12 [Example 3, 1-(1,3-dioxolan-2-ylmethyl)-7-(1,2,3,4-tetrahydroisoquinolin-2-yl)-2,3-dimethyl-1H-pyrrolo[3,2-b]pyridine hydrochloride] | 640 nM
5 | COCCn1c(C)c(C)c2nccc(N3CCc4ccccc4C3)c21 [Example 5, 1-(2-methoxyethyl)-7-(1,2,3,4-tetrahydroisoquinolin-2-yl)-2,3-dimethyl-1H-pyrrolo[3,2-b]pyridine hydrochloride] | 320 nM
6 | Cc1c(C)n(Cc2ccccc2)c2c(N3CCc4ccccc4C3)ccnc12 [Example 6, 1-benzyl-7-(1,2,3,4-tetrahydroisoquinolin-2-yl)-2,3-dimethyl-1H-pyrrolo[3,2-b]pyridine hydrochloride] | 200 nM
7 | C=CCn1c(C)c(C)c2nccc(N3CCc4ccccc4C3)c21 [Example 7, 1-allyl-7-(1,2,3,4-tetrahydroisoquinolin-2-yl)-2,3-dimethyl-1H-pyrrolo[3,2-b]pyridine hydrochloride] | 220 nM
8 | COc1cccc(Cn2c(C)c(C)c3nccc(N4CCc5ccccc5C4)c32)c1 [Example 8, 1-(3-methoxybenzyl)-7-(1,2,3,4-tetrahydroisoquinolin-2-yl)-2,3-dimethyl-1H-pyrrolo[3,2-b]pyridine hydrochloride] | 440 nM
9 | Cc1c(C)n(Cc2ccccc2F)c2c(N3CCc4ccccc4C3)ccnc12 [Example 9, 1-(2-fluorobenzyl)-7-(1,2,3,4-tetrahydroisoquinolin-2-yl)-2,3-dimethyl-1H-pyrrolo[3,2-b]pyridine hydrochloride] | 330 nM
10 | COc1ccc(Cn2c(C)c(C)c3nccc(N4CCc5ccccc5C4)c32)cc1 [Example 10, 1-(4-methoxybenzyl)-7-(1,2,3,4-tetrahydroisoquinolin-2-yl)-2,3-dimethyl-1H-pyrrolo[3,2-b]pyridine hydrochloride] | 690 nM
11 | Cc1cccc(Cn2c(C)c(C)c3nccc(N4CCc5ccccc5C4)c32)c1 [Example 12, 1-(3-methylbenzyl)-7-(1,2,3,4-tetrahydroisoquinolin-2-yl)-2,3-dimethyl-1H-pyrrolo[3,2-b]pyridine hydrochloride] | 970 nM
12 | CCn1c(C)c(C)c2nccc(N3CCc4ccccc4C3)c21 [Example 13, 1-ethyl-7-(1,2,3,4-tetrahydroisoquinolin-2-yl)-2,3-dimethyl-1H-pyrrolo[3,2-b]pyridine hydrochloride] | 800 nM
13 | Cc1c(C)n(CCC2OCCO2)c2c(N3CCc4ccccc4C3)ccnc12 [Example 14, 1-[2-(1,3-dioxolan-2-yl)ethyl]-7-(1,2,3,4-tetrahydroisoquinolin-2-yl)-2,3-dimethyl-1H-pyrrolo[3,2-b]pyridine hydrochloride] | 530 nM
14 | Cc1c(C)n(Cc2ccc(Cl)cc2)c2c(OCc3ccc(F)cc3)ccnc12 [Example 33, 1-(4-chlorobenzyl)-7-(4-fluorobenzyloxy)-2,3-dimethyl-1H-pyrrolo[3,2-b]pyridine hydrochloride] | 650 nM
15 | Cc1ccc(Cn2c(C)c(C)c3nccc(OCc4ccc(F)cc4)c32)cc1 [Example 34, 7-(4-fluorobenzyloxy)-2,3-dimethyl-1-(4-methylbenzyl)-1H-pyrrolo[3,2-b]pyridine hydrochloride] | 230 nM
16 | COC(=O)c1ccc(Cn2c(C)c(C)c3nccc(OCc4ccc(F)cc4)c32)cc1 [Example 35, 4-[7-(4-fluorobenzyloxy)-2,3-dimethyl-pyrrolo[3,2-b]pyridin-1-ylmethyl]-benzoic acid methyl ester hydrochloride] | 1090 nM

Row | Compound | IC50
17 | Cc1c(C)n(Cc2ccc3ccccc3c2)c2c(OCc3ccc(F)cc3)ccnc12 [Example 37, 7-(4-fluorobenzyloxy)-2,3-dimethyl-1-(naphthalen-2-ylmethyl)-1H-pyrrolo[3,2-b]pyridine hydrochloride] | 1260 nM
18 | C=COCCn1c(C)c(C)c2nccc(OCc3ccc(F)cc3)c21 [Example 38, 7-(4-fluorobenzyloxy)-2,3-dimethyl-1-(2-vinyloxyethyl)-1H-pyrrolo[3,2-b]pyridine hydrochloride] | 1310 nM
19 | Cc1c(C)n(CC2OCCO2)c2c(OCc3ccc(F)cc3)ccnc12 [Example 39, 1-(1,3-dioxolan-2-ylmethyl)-7-(4-fluorobenzyloxy)-2,3-dimethyl-1H-pyrrolo[3,2-b]pyridine hydrochloride] | 220 nM
20 | Cc1c(C)n(Cc2cccc(F)c2)c2c(OCc3ccc(F)cc3)ccnc12 [Example 40, 1-(3-fluorobenzyl)-7-(4-fluorobenzyloxy)-2,3-dimethyl-1H-pyrrolo[3,2-b]pyridine hydrochloride] | 190 nM
21 | CC(C)=CCn1c(C)c(C)c2nccc(OCc3ccc(F)cc3)c21 [Example 56, hydrochloride] | 570 nM
22 | COC(=O)CCn1c(C)c(C)c2nccc(OCc3ccc(F)cc3)c21 [Example 57, 1-[2-(methoxycarbonyl)ethyl]-7-(4-fluorobenzyloxy)-2,3-dimethyl-1H-pyrrolo[3,2-b]pyridine hydrochloride] | 270 nM
23 | COc1ccc(Cn2c(C)c(C)c3nccc(OCc4ccc(F)cc4)c32)cc1 [Example 58, 7-(4-fluorobenzyloxy)-1-(4-methoxybenzyl)-2,3-dimethyl-1H-pyrrolo[3,2-b]pyridine hydrochloride] | 230 nM
24 | COCn1c(C)c(C)c2nccc(OCc3ccc(Cl)cc3)c21 [Example 74, 7-(4-chlorobenzyloxy)-1-methoxymethyl-2,3-dimethyl-1H-pyrrolo[3,2-b]pyridine hydrochloride] | 1080 nM
25 | Cc1c(C)n(Cc2ccc(C(C)(C)C)cc2)c2c(OCc3ccc(Cl)cc3)ccnc12 [Example 79, 1-(4-tert-butylbenzyl)-7-(4-chlorobenzyloxy)-2,3-dimethyl-1H-pyrrolo[3,2-b]pyridine hydrochloride] | 1590 nM
26 | Cc1c(C)n(Cc2ccncc2)c2c(OCc3ccc(Cl)cc3)ccnc12 [Example 80, 7-(4-chlorobenzyloxy)-2,3-dimethyl-1-(pyridin-4-ylmethyl)-1H-pyrrolo[3,2-b]pyridine hydrochloride] | 2870 nM
27 | Cc1c(C)n(CC2CNC(=O)O2)c2c(OCc3ccc(Cl)cc3)ccnc12 (centres unmarked) [Example 81, 5-[7-(4-chlorobenzyloxy)-2,3-dimethyl-pyrrolo[3,2-b]pyridin-1-ylmethyl]-oxazolidin-2-one hydrochloride] | 1250 nM
28 | Cc1ccc(C)c(Cn2c(C)c(C)c3nccc(OCc4ccc(Cl)cc4)c32)c1 [Example 82, 7-(4-chlorobenzyloxy)-1-(2,5-dimethylbenzyl)-2,3-dimethyl-1H-pyrrolo[3,2-b]pyridine hydrochloride] | 4700 nM
29 | COC(=O)Cn1c(C)c(C)c2nccc(OCc3ccc(Cl)cc3)c21 [Example 83, [7-(4-chlorobenzyloxy)-2,3-dimethyl-pyrrolo[3,2-b]pyridin-1-yl]acetic acid methyl ester hydrochloride] | 3820 nM
30 | CC(C)=CCn1c(C)c(C)c2nccc(OCc3ccc(Cl)cc3)c21 [Example 84, 7-(4-chlorobenzyloxy)-2,3-dimethyl-1-(3-methylbut-2-enyl)-1H-pyrrolo[3,2-b]pyridine hydrochloride] | 390 nM
31 | CC(=O)OCCn1c(C)c(C)c2nccc(OCc3ccc(Cl)cc3)c21 [Example 85, 1-(2-acetoxyethyl)-7-(4-chlorobenzyloxy)-2,3-dimethyl-1H-pyrrolo[3,2-b]pyridine hydrochloride] | 170 nM
32 | Cc1c(C)n(CC2OCCO2)c2c(OCc3ccc(Cl)cc3)ccnc12 [Example 87, 7-(4-chlorobenzyloxy)-1-(1,3-dioxolan-2-ylmethyl)-2,3-dimethyl-1H-pyrrolo[3,2-b]pyridine hydrochloride] | 160 nM
